Blank lines part the entries; values can stand above or below the compound they belong to.
What was measured:
[1] = tested on: Primary Rat Hippocampal Cells; test: Neurite outgrowth assay in primary rat hippocampal cells; type: cell-based; conditions: MAP-2 immunofluorescence, active if greater than mean DMSO-treated control
Protocol: Hippocampal cells are dissected from the brains of embryonic day 18 rat pups and dissociated with trypsin (1 mg/mL) and trituration. Cells are seeded at 30,000 cells/well in 96-well plates filled with 100 μL MEM and 10% FBS. At 7 days in culture, cells are fixed with 4% paraformaldehyde and immuno-fluorescence is performed.
(§1) Cultures are incubated with normal horse serum (1:50; Vector Labs) for about 20 min, rinsed and then incubated with primary antibody, microtubule associated-protein 2 (anti-mouse MAP-2; 1:1000; Chemicon) for about 2 h at about RT. Following primary antibody, cultures are rinsed and incubated with fluorescein anti-mouse IgG (rat absorbed; 1:50; Vector Labs) for about 1 h. After fluorescein incubation, the cultures are rinsed and read in PBS on a fluorescent plate reader (excitation: 485 nm; emission: 530 nm). […] The response to test compound is reported as percent of DMSO-treated control.

[2] = target: T1, α-4,β-2 nicotinic acetycholine receptor (α4β2nAChR) (Rattus norvegicus, UniProt P09483+P12390); test: Nicotinic acetylcholine receptor binding assay (3H-cytisine)
T1 construct: crude synaptic membrane preparations from rat cerebral cortex, striatum and hippocampus; from tissue; host or cells: rat cerebral cortex, striatum and hippocampus (crude synaptic membranes, P2 fraction)
T1 sequence (P09483 31-630): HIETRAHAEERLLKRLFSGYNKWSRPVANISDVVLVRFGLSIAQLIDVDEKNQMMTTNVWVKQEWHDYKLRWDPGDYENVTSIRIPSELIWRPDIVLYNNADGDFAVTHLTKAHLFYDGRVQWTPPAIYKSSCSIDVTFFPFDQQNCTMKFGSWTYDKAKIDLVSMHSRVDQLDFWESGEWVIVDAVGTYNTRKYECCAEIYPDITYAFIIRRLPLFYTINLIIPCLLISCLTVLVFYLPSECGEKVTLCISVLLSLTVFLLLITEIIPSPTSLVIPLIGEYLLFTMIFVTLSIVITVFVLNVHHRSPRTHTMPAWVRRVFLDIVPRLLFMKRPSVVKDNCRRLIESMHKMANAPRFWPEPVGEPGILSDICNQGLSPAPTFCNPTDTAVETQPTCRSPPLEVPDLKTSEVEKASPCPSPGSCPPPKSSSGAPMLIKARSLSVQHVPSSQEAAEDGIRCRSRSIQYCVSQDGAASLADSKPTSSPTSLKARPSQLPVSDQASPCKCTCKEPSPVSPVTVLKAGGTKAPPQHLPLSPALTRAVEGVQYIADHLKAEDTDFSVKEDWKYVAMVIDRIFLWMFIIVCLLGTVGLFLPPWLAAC
T1 sequence (P12390 25-500): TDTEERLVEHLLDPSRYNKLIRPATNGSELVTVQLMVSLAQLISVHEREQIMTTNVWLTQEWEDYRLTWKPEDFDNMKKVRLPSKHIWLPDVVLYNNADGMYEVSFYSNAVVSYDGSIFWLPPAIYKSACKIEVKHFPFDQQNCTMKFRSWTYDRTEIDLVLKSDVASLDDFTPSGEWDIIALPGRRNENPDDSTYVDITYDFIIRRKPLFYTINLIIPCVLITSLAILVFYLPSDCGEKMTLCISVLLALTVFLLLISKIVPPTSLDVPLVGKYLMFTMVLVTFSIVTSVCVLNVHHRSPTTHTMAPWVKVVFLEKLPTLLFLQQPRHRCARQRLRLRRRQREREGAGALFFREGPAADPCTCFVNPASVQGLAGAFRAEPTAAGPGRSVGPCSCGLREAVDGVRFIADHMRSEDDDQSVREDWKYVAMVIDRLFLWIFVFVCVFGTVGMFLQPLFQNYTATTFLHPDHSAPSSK
Protocol: Binding of ^3H-cytisine to neuronal nicotinic acetylcholine receptors is accomplished using crude synaptic membrane preparations from rat cerebral cortex, striatum and hippocampus. Either fresh or frozen membranes are homogenized in 50 volumes of 10 mM HEPES (N-2-hydroxyethylpiperazine-N′-2-ethanesulfonic acid, pH 7.4) and centrifuged at 42,000 g. The P2 fraction is resuspended in 40 volumes of 10 mM HEPES and centrifuged at 42,000 g. This step is repeated and the P2fraction was resuspended in 25 volumes (e.g., 1 g of tissue into 25 mL) of a medium comprised of Na^+-HEPES buffer (10 mM, pH 7.4), 5 mM MgCl2, 0.01% powdered bovine serum albumin (BSA) and 100 mM NaCl. […] The binding reaction is terminated by filtration using a Brandel Cell Harvester; the amount of bound ^3H-cytisine for each sample is quantitated using a Wallac LKB 1205 Betaplate liquid scintillation counter. […] Nonspecific binding is determined using 10 μM (+)-epibatidine to block all binding of ^3H-cytisine to the α-4,β-2 nicotinic acetycholine receptor (α4β2nAChR). The activity of each test compound is calculated as follows: after correcting for nonspecific binding, the percent inhibition of specific binding (total binding minus nonspecific) is calculated. […] The IC50 values are calculated by performing a nonlinear regression analysis of the data using a standard regression program.

[3] = tested on: Human M17 Neuroblastoma Cells; test: Neurite outgrowth assay in human M17 neuroblastoma cells; type: cell-based; conditions: MAP-2 immunofluorescence, active if greater than mean DMSO-treated control
Protocol: M17 human neuroblastoma cells are cultured in 1:1 ratio of EMEM and Ham's F12 with 1×NEM and 10% FBS. The culture media contains 1×PSN antibiotic and is exchanged every other day, and the cells are passed in log phase near confluence.
as §1

[4] = tested on: Long-Evans rats, compressed facial nerve; test: Rat facial nerve compression model; type: in vivo; conditions: p.o. about 20 mg/kg twice a day for 15 days after surgery; compared to vehicle and internal control; FIG. 1
Protocol: In this model, compressing the facial nerve causes paralysis of the whisker muscle on that side of the face. The untreated facial nerve on the other side functions as an internal control. […] The whisker movement recovery rate on the paralyzed side compared to the vehicle and internal control is shown in this FIGURE.
Long-Evans rats are anesthetized under ketamine (60 mg/kg)/xylazine (6mg/kg). The facial nerve is exposed and mechanically compressed with forceps near the stylomastoid foramen unilaterally with the opposite, non-lesioned side serving as an internal control. […] Rats received test compound p.o. at about 20 mg/kg twice a day for 15 days after the surgery. Control rats received vehicle only. Three to eight rats are tested in each group. Restoration of whisker movement after the treatment with compounds of the present invention is recorded at different post-operative time points daily, up to two weeks, and is shown in FIG. 1.

[5] = tested on: Dorsal Root Ganglion (DRG); test: Dorsal Root Ganglion (DRG) culture, neurite outgrowth; type: cell-based, rat; design: key: + = Positive results for each experiment; − = Negative results for each experiment; conditions: neurite outgrowth from DRG, test compound 50-250 nM, days 1-5; positive if neurites of ≧1 diameter of the DRG; one symbol per experiment
Protocol: Dorsal Root Ganglion (DRG) Culture
DRG are dissected from newborn or 1-day-old CD rats and placed into PBS on ice. After rinsing twice with sterile plating medium, DRG are transferred to empty wells of a 6-well plate coated with polyomithine/laminin (Becton Dickinson Labware) using #7 curved forceps. Three ml/well of plating medium are then added very gently, so as not to disturb the DRG. Plating medium is Leibovitz's L-15 medium (Gibco), plus 0.6% glucose, 33 mM KCl, 10% FCS, 10 mM Hepes and penicillin/streptomycin/glutamine. After overnight incubation at about 37° C. in 5% CO2, this medium is replaced with 3 mL/well of assay medium [Leibovitz's L-15 medium plus 0.6% glucose, 1% FCS, 1% N-2 supplement (Gibco), 10 μM ara-C, 10 mM Hepes, and penicillin/streptomycin/glutamine] containing either vehicle (DMSO, 1/200,000), positive control (2-4 ng/mL NGF) or test compound (50-250 nM). All media are prepared fresh daily. DRG are microscopically examined for neurite outgrowth on days 1-5.

Structure (SMILES): CCC(C)(C)C(=O)C(=O)N1CCC[C@@H]1C(=O)NNC(=O)[C@H]1CCCN1C(=O)C(=O)C(C)(C)CC [Compound 63]
- Rat Hippocampal Cell Response [1]: 110% of DMSO-treated control

Structure (SMILES): c1cncc(OCc2csc([C@@H]3CCCN3)n2)c1 [Compound 17]
- IC50 [2]: 63.8 nM

- melting point: 132 to 133 °C
Structure (SMILES): O=C(C(=O)N1CCCC1c1nnc([C@@H]2CCCN2C(=O)C(=O)C2CCCCC2)o1)C1CCCCC1 (some centres unmarked) [Compound 49]

Structure (SMILES): CCC(C)(C)C(=O)C(=O)N1CCC[C@H]1c1nc(COc2cccnc2)cs1 [Compound 19]
- M17 Cell Response [3]: 110% of DMSO-treated control

- melting point: 123 to 124 °C
Structure (SMILES): CCC(C)(C)C(=O)C(=O)N1CCCC1c1nnc([C@@H]2CCCN2C(=O)C(=O)C(C)(C)CC)o1 (some centres unmarked) [Compound 30]
- Restoration of whisker movement on the paralyzed side [4]: restored more rapidly

Structure (SMILES): c1cncc(OCc2ncoc2[C@@H]2CCCN2)c1 [Compound 6]
- IC50 [2]: 801 nM

Structure (SMILES): CCC(C)(C)C(=O)C(=O)N1CCC[C@H]1C(=O)NNC(=O)[C@@H]1CCCN1C(=O)C(=O)C(C)(C)CC [Compound 24]
- DRG [5]: + and −
